Results on 15 compounds are retold here after patent US10703764B2, “Benzopiperazine compositions as BET bromodomain inhibitors” (FORMA Therapeutics, Inc., priority 2013, dated 2020).

One assay deals with T1, BRD4 BD1 (Homo sapiens, UniProt O60885).
T1 construct: made in house
In words: AlphaScreen binding assay, BRD4 Bromodomain 1. Put shortly: (§1)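 Compound dilution series were mixed with His-tagged BRD4 bromodomain and biotinylated tetra-acetylated H4 (1-21) peptide at pH 7.3 (BD1 and peptide at 50 nM, BD2 and peptide at 100 nM). Donor and acceptor beads were then added, and plates were equilibrated at least 1 h before reading. IC50 values were fitted with a four-parameter logistic model.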

Another assay has as its system MV4-11 cells. In words: Oncology cell growth assay (3-day proliferation, CellTiter-Glo). The format is cell-based. The note with it: Homo sapiens, MV4-11, 72 h, AML cell line MV4-11, 72 hours, compounds grouped by IC50 range, read-out: MV4-11 IC50 (inhibition of proliferation, gIC50). In a few lines:
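A 3-day proliferation test used MV4-11 cells seeded at 3000 per well with eight compound concentrations (10 μM top, 3-fold dilution) at 37° C in 5% CO2. CellTiter-Glo luminescence defined viable cell signal. A four-parameter logistic curve against DMSO and background wells gave the gIC50.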
For orientation: In ATP-based viability assays light output follows the ATP content of the culture.

For another assay, the target named is T2, BRD4 BD2 (Homo sapiens, UniProt O60885).
T2 construct: made in house
In words: AlphaScreen binding assay, BRD4 Bromodomain 2. In a few lines:
as §1
In general terms: Alpha assays give light when donor and acceptor beads are brought close together.

With `CC(C)OC(=O)N1C[C@H](C)N(C(=O)C2CC2)c2ccc(-c3cnn(CC4(C)COC4)c3)cc21` [Example I-620], the values for the IC50 on BRD4 BD1, in the assay on MV4-11 cells and on BRD4 BD2 were 100 to 1000 nM, 100 to 500 nM and 50 to 500 nM, respectively.

For the compound `CC(=O)N1c2ccc(-c3ccc(C(=O)N4CCN(S(C)(=O)=O)CC4)cc3)cc2N(C(=O)OC(C)C)C[C@@H]1C` [Example I-549], the values for the IC50 on BRD4 BD1, in the assay with MV4-11 cells and at BRD4 BD2 were 100 to 1000 nM, 100 to 500 nM and 50 to 500 nM, respectively.

With `CC(=O)N1c2ccc(-c3ccc4c(c3)CCN4S(C)(=O)=O)cc2N(C(=O)Oc2ccc(F)cc2)C[C@@H]1C` [Example I-1026], the IC50 was in the range of 100 to 1000 nM at BRD4 BD1, 100 to 500 nM in the assay on MV4-11 cells and 50 to 500 nM at BRD4 BD2.

For the compound `CC(=O)N1c2ccc(-c3cnn(C4CC4)c3)cc2N(C(=O)Oc2ccc3nc(C)ccc3c2)C[C@@H]1C` [Example I-513], the IC50 at BRD4 BD1 was 100 to 1000 nM; with MV4-11 cells, less than 100 nM; on BRD4 BD2, 50 to 500 nM.

In the case of `CC(C)OC(=O)N1C[C@H](C)N(C(=O)C2CC2)c2ccc(-c3ccc(C(=O)N4CC[C@H](O)C4)cc3)cc21` [Example I-574], the IC50 is 100 to 1000 nM on BRD4 BD1, greater than 500 nM in the assay on MV4-11 cells and 50 to 500 nM on BRD4 BD2.

For the compound `CCOC(=O)N1C[C@H](C)N(C(C)=O)c2ccc(-c3cn[nH]c3)cc21` [Example I-19, (S)-ethyl 4-acetyl-3-methyl-7-(1H-pyrazol-4-yl)-3,4-dihydroquinoxaline-1(2H)-carboxylate], the IC50 on BRD4 BD1 is 1000 to 10000 nM; with MV4-11 cells, 100 to 500 nM; at BRD4 BD2 it was 50 to 500 nM.

As to `COC(=O)N1c2ccc(-c3cnn(CC4(CO)COC4)c3)cc2N(C(=O)OC(C)C)C[C@@H]1C` [Example I-630], the values for the IC50 at BRD4 BD1, in the assay with MV4-11 cells and at BRD4 BD2 were less than 100 nM, 100 to 500 nM and 50 to 500 nM, respectively.

Consider `CC(=O)N1c2cc(N)c(-c3cnn(C4CC4)c3)cc2N(C(=O)OC(C)C)C[C@@H]1C` [Example I-206, Isopropyl (S)-4-acetyl-6-amino-7-(1-cyclopropyl-1H-pyrazol-4-yl)-3-methyl-3,4-dihydroquinoxaline-1(2H)-carboxylate], for which the IC50 on BRD4 BD1 was 100 to 1000 nM; in the assay with MV4-11 cells, 100 to 500 nM; on BRD4 BD2, less than 50 nM.

On to `CC(=O)N1c2ccc(-c3cnn(CCC#N)c3)cc2N(C(=O)OC(C)C)C[C@@H]1C` [Example I-679], for which the IC50 is 100 to 1000 nM on BRD4 BD1, 100 to 500 nM with MV4-11 cells and 50 to 500 nM on BRD4 BD2.

On to `CC(=O)N1c2ccc(-c3ccc(C(=O)N4CCCC[C@@H]4CN)cc3)cc2N(C(=O)OC(C)C)C[C@@H]1C` [Example I-591], for which the IC50 at BRD4 BD1 is 100 to 1000 nM; in the assay on MV4-11 cells, 100 to 500 nM; at BRD4 BD2, 50 to 500 nM.

In the case of `CC(C)OC(=O)N1C[C@H](C)N(C(=O)C2CC2)c2ccc(-c3cnn(CCC(N)=O)c3)cc21` [Example I-621], the IC50 was 100 to 1000 nM at BRD4 BD1, greater than 500 nM in the assay on MV4-11 cells and 50 to 500 nM on BRD4 BD2.

On to `CCOC(=O)N1C[C@H](C)N(C(=O)C2CC2)c2ccc(-c3cnn(C4CC4)c3)cc21` [Example I-379], for which the IC50 is 100 to 1000 nM at BRD4 BD1, 100 to 500 nM in the assay with MV4-11 cells and 50 to 500 nM at BRD4 BD2.

For the compound `CC(=O)N1c2ccc(-c3ccc(S(C)(=O)=O)cc3)cc2N(C(=O)OCC(C)C)C[C@@H]1C` [Example I-250], the IC50 on BRD4 BD1 lay within 100 to 1000 nM; in the assay with MV4-11 cells, 100 to 500 nM; on BRD4 BD2, 50 to 500 nM.

In the case of `CC(=O)N1c2ccc(-c3ccc(S(N)(=O)=O)cc3)cc2N(C(=O)OC2CCCCC2)C[C@@H]1C` [Example I-1233], the IC50 lay in the range of 100 to 1000 nM at BRD4 BD1, 100 to 500 nM in the assay on MV4-11 cells and 50 to 500 nM at BRD4 BD2.

As for `CC(=O)N1c2ccc(-c3cnn(Cc4cc(C)no4)c3)cc2N(C(=O)OC(C)C)C[C@@H]1C` [Example I-141, (S)-isopropyl 4-acetyl-3-methyl-7-(1-((3-methylisoxazol-5-yl)methyl)-1H-pyrazol-4-yl)-3,4-dihydroquinoxaline-1(2H)-carboxylate], the IC50 at BRD4 BD1 is 100 to 1000 nM; in the assay on MV4-11 cells it was 100 to 500 nM; on BRD4 BD2 it was less than 50 nM.
